Experimental data from PubChem BioAssay (NCI).
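A five-concentration, 48-hour dose response in 96-well plates underlies each endpoint, interpolated linearly between surrounding concentrations. Definition used: TGI = concentration required for complete inhibition of growth.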

What was measured:
Test in all cases: inhibition of tumour cell growth, NCI panel, 48 h
[1] = system: HL-60(TB) leukemia
[2] = system: SNB-78 CNS
[3] = system: M14 melanoma
[4] = system: OVCAR-8 ovarian
[5] = system: MOLT-4 leukemia
[6] = system: SK-MEL-5 melanoma
[7] = system: SF-539 CNS
[8] = system: HT29 colon
[9] = system: LOX IMVI melanoma
[10] = system: CCRF-CEM leukemia
[11] = system: COLO 205 colon
[12] = system: UACC-62 melanoma
[13] = system: U251 CNS
[14] = system: NCI-H460 lung
[15] = system: CAKI-1 renal
[16] = system: SK-OV-3 ovarian
[17] = system: HCT-116 colon
[18] = system: KM12 colon
[19] = system: NCI-H522 lung
[20] = system: SF-295 CNS
[21] = system: TK-10 renal
[22] = system: UACC-257 melanoma
[23] = system: SNB-75 CNS
[24] = system: KM20L2 colon
[25] = system: HCT-15 colon
[26] = system: RPMI-8226 leukemia
[27] = system: M19-MEL melanoma
[28] = system: K-562 leukemia
[29] = system: DLD-1 colon
[30] = system: SN12C renal
[31] = system: OVCAR-4 ovarian
[32] = system: HOP-62 NSCLC
[33] = system: SK-MEL-2 melanoma
[34] = system: RXF 393 renal
[35] = system: HOP-18 NSCLC
[36] = system: DMS 273 small cell lung
[37] = system: OVCAR-3 ovarian
[38] = system: NCI-H226 lung
[39] = system: HOP-92 NSCLC
[40] = system: UO-31 renal
[41] = system: SK-MEL-28 melanoma
[42] = system: NCI-H23 lung
[43] = system: DMS 114 small cell lung
[44] = system: OVCAR-5 ovarian
[45] = system: SF-268 CNS
[46] = system: LXFL 529 NSCLC
[47] = system: IGROV1 ovarian
[48] = system: A549 NSCLC
[49] = system: MALME-3M melanoma
[50] = system: ACHN renal
[51] = system: 786-0 renal
[52] = system: SW-620 colon
[53] = system: SR leukemia
[54] = system: NCI/ADR-RES ovarian
[55] = system: HS 578T breast
[56] = system: EKVX NSCLC
[57] = system: MDA-MB-231 breast
[58] = system: SNB-19 CNS
[59] = system: DU-145 prostate
[60] = system: MDA-MB-435
[61] = system: A498 renal
[62] = system: PC-3 prostate
[63] = system: HCC-2998 colon
[64] = system: MCF7 breast
[65] = system: T-47D breast
[66] = system: BT-549 breast
[67] = system: MDA-N

Measured: TGI

COc1ccc(C(C#N)NNc2nc(C)cc(=O)[nH]2)cc1OC (stereo unspecified)
not listed: [54] | [55] | [56] | [57] | [58] | [59] | [60] | [61] | [62] | [63] | [64] | [65] | [66] | [67]
> 100 µM: all other assays above

CCC(CCCC[C@@H]1CC[C@H]2CC(=O)C[C@@H]12)OC (stereo partly specified)
not listed: [2] | [24] | [27] | [29] | [35] | [36] | [40] | [43] | [46]
> 100 µM: all other assays above
